Data published in patent publication US7618787B2, “Method of screening compound capable of accelerating or inhibiting apoptosis, apoptosis accelarator and apoptosis inhibitor” (Hisamitsu Pharmaceutical Co., Inc., priority 2004, dated 2009).

Key:
p73 [1] = biological target: T1, p73 (Homo sapiens, UniProt O15350); experiment: p73 protein level (stabilization) by immunoblot in cotransfected COS7 cells; format: cell-based; details: COS7 cotransfection (FIG. 14, 15, 29)
T1 construct: expressed in transfected cells; host or cells: COS7
T1 sequence (O15350 1-636): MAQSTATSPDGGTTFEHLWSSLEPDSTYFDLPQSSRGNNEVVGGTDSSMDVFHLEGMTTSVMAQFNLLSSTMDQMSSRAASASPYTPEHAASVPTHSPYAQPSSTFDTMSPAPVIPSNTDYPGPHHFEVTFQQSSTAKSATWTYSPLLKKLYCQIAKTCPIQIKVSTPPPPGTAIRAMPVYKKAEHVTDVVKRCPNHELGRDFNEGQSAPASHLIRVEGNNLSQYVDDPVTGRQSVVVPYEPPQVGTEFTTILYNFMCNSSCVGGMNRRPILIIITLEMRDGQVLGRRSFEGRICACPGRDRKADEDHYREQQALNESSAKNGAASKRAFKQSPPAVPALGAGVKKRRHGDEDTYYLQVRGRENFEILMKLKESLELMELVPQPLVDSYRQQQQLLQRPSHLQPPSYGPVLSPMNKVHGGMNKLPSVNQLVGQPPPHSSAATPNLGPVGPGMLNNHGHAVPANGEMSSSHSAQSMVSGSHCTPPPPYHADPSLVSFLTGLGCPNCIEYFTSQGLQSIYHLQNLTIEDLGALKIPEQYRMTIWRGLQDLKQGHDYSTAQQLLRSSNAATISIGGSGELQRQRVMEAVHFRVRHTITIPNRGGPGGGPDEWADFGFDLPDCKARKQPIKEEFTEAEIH
Description: (§1) Cells were transiently transfected with a total of 2 μg of expression plasmids. After 48 hours of the transfection, the cells were washed with ice-cold PBS and suspended in lysis buffer (pH 8.0; which contained 25 mM Tris-Cl, 137 mM sodium chloride, 1% Triton X-100, 1 mM phenylmethylsulfonyl fluoride (PMSF), and protease inhibitor mix (Roche Molecular Biochemicals)), followed by brief sonication. After centrifugation at 15000 rpm for 10 minutes, the supernatant was collected and assayed for protein concentrations by the Bradford assay (Bio-Rad). Equal amounts of lysates (protein amount: 50 μg) from the whole cells were denatured by boiling in Laemmli SDS-sample buffer, then separated on 10% SDS-polyacrylamide gel (SDS-PAGE), and transferred at room temperature for 1 hour to polyvinylidene difluoride (PVDF) membranes (Immobilon-P; Millipore) in Tris-glycine buffer containing 10% methanol. The membranes were blocked at room temperature for 1 hour with Tris-buffered saline (TBS-T) containing 5% skim milk and 0.1% Tween 20.
As previously reported, some protein kinases (e.g., c-Abl and PKCδ) that interact with p73 can stabilize p73. To confirm whether IKK-α influenced the stabilization of p73, COS7 cells were transfected with a constant amount of HA-p73α expression plasmid together with or without varying amounts of IKK-α expression plasmids and examined for HA-p73α protein levels. […] Next, whether IKK-β influenced the stabilization of p73 and p53 was investigated by transient transfection.

p53 = p53 protein level (stabilization) by immunoblot in cotransfected COS7 cells; format: cell-based; details: COS7 cotransfection (FIG. 14, 15)
Description: as §1
As previously reported, some protein kinases (e.g., c-Abl and PKCδ) that interact with p73 can stabilize p73. To confirm whether IKK-α influenced the stabilization of p73, COS7 cells were transfected with a constant amount of HA-p73α expression plasmid together with or without varying amounts of IKK-α expression plasmids and examined for HA-p73α protein levels. […]

HA-p73α = biological target: T2, HA-p73α (Homo sapiens, UniProt O15350); experiment: Ubiquitination assay in COS7 cells; format: cell-based; details: COS7, HA-p73α and HA-ubiquitin, MG-132 (FIG. 18, 19)
T2 construct: expressed in transfected cells; host or cells: COS7
T2 sequence (O15350 1-636): T1 sequence (O15350 1-636)
Description: COS7 cells were transiently transfected with a constant amount of expression plasmids encoding HA-p73α and HA-Ub in the presence or absence of varying amounts of IKK-α expression plasmids. After […] from the transfection, the cells were exposed for 6 hours to a proteasome inhibitor MG-132 (final concentration: 20 μM), and lysates from the whole cells were first subjected to immunoprecipitation with an anti-p73 monoclonal antibody and then to immunoblot using an anti-HA monoclonal antibody (12CA5; Roche Molecular Biochemicals) to analyze ubiquitination levels.
As described by Lee, C.-W. et al., Oncogene 18: 4171-4181 (1999), the steady-state level of p73 was regulated at least partially by the proteolytic process through the ubiquitin-proteasome pathway. Whether IKK-α inhibited the ubiquitination of p73 was investigated. COS7 cells were transfected with expression plasmids for HA-p73α and HA-ubiquitin together with or without varying amounts of IKK-α or FLAG-IKK-β expression plasmids. After 48 hours of the transfection, lysates from the whole cells were analyzed by immunoprecipitation and immunoblot and examined for the presence of p73α containing HA-ubiquitin.

p73 [2] = experiment: Luciferase reporter assay, p73-dependent transcriptional activation in H1299 cells; format: cell-based, human; details: H1299, coexpression with HA-p73α or HA-p73β (FIG. 20, 21, 23)
Description: H1299 cells deficient in p53 were seeded at a density of 5×10^4 cells/well onto a 12-well tissue culture dish and transiently transfected with 100 ng of luciferase reporter construct (which carried a p53/p73-responsive element derived from a p21^WAF1, Bax, or MDM2 promoter), 10 ng of pRL-TK Renilla luciferase cDNA, and 25 ng of given expression plasmid (p53, HA-p73α, or HA-p73β) together with or without varying amounts of IKK-α or FLAG-IKK-β expression plasmids. The total amount of DNA per transfection was kept constant (510 ng) with a pcDNA3 empty plasmid. After 48 hours from the transfection, the cells were washed twice with ice-cold PBS and suspended in passive lysis buffer (Promega). Both firefly and Renilla luciferase activities were assayed by use of dual-luciferase reporter assay system (Promega) according to the instruction. […] intensity was measured with TD-20 luminometer (Turner Design). The firefly luciferase signal was normalized based on the Renilla luciferase signal. Results obtained from at least 3 transfections were indicated by mean value±standard deviation.
To explore the functional implication of interaction between IKK-α and p73, the effect of IKK-α on p73-mediated transcriptional activation was first examined. H1299 cells deficient in p53 were transfected with a HA-p73α or HA-p73β expression plasmid and a luciferase reporter construct under the control of a p21^WAF1, Bax, or MDM2 promoter together with or without varying amounts of IKK-α expression plasmids. […] By contrast, increase in p53-responsive reporter gene activity was not induced by IKK-α (FIG. 22). To examine the specificity of p73-dependent transcriptional activation mediated by IKK-α, whether IKK-β enhanced p73 transcriptional activity to p53/p73-responsive promoters was confirmed.

H1299 cells = experiment: Apoptosis assay (trypan blue / Red-Gal double staining), p73α-dependent; format: cell-based, human; details: H1299, coexpression with HA-p73α, 48 hours (FIG. 25-27)
Description: To detect apoptosis via p73α and IKK overexpression, H1299 cells were seeded at a density of 1.5×10^4 cells/well onto a 6-well tissue culture dish. Next day, the cells were transiently transfected with 50 ng of β-galactosidase expression plasmid and 50 ng of HA-p73α expression plasmid in the presence or absence of varying amounts of IKK-α or IKK-β expression vectors (100, 200, or 400 ng). After 48 hours of the transfection, the cells were washed with ice-cold PBS and stained at room temperature for 10 minutes with 0.4% trypan blue (PBS solution). Then, the cells were washed twice with PBS, then fixed for 10 minutes in PBS containing 2.5% glutaraldehyde, 1 mM magnesium chloride, and 2 mM EGTA, and stained for 2 hours with Red-Gal (Research Organics) according to the method described in Bayon, Y. et al., Mol. Cell. Biol. 23: 1061-1074 (2003). Red-Gal was used as a marker for visualizing the transfected cells to evaluate the degree of apoptosis occurring in the transfectants. […] Results were indicated by an average of three independent transfections (each performed three times or more).
Potential effect(s) of IKK-α on p73-dependent biological functions such as the regulation of apoptosis was examined. […] After 48 hours of the transfection, the cells were subjected to double staining with trypan blue (nonviable cells) and Red-Gal (transfected cells), and the number of purple cells was scored.

Substance: FLAG-IKK-β: IκB kinase catalytic subunit IKK-β (IKK-2), FLAG-tagged, expressed from plasmid as comparison
- amount of HA-p73α (p73 [1]): no detectable effect on the stabilization of both p73 and p53
- stabilization of p53 (p53): no detectable effect on the stabilization of both p73 and p53
- amount of ubiquitinated p73α (HA-p73α): inhibited the ubiquitination of p73α to a somewhat lesser degree
- p73-dependent transcriptional activation of p21WAF1, Bax, MDM2 promoter reporters (p73 [2]): no remarkable change in p73-dependent transcriptional activation
- number of cells undergoing p73α-dependent apoptosis (H1299 cells): no remarkable effect on p73α-dependent apoptosis
